Results from US20230263808A1 (UNIVERSITY OF FLORIDA RESEARCH FOUNDATION, INCORPORATED, priority 2020, published 2023).
“Also recorded” adds a separate entry of the source. Where two headings read alike, the source gives them in different places.

Tests used:
[1] = target: T1, glucocorticoid receptor (GR) (Homo sapiens, UniProt P04150); experiment: GR-driven (MMTV) luciferase reporter assay, agonist and antagonist mode; format: cell-based
T1 construct: expressed in transfected cells; host or cells: 293T
T1 sequence (P04150 1-777): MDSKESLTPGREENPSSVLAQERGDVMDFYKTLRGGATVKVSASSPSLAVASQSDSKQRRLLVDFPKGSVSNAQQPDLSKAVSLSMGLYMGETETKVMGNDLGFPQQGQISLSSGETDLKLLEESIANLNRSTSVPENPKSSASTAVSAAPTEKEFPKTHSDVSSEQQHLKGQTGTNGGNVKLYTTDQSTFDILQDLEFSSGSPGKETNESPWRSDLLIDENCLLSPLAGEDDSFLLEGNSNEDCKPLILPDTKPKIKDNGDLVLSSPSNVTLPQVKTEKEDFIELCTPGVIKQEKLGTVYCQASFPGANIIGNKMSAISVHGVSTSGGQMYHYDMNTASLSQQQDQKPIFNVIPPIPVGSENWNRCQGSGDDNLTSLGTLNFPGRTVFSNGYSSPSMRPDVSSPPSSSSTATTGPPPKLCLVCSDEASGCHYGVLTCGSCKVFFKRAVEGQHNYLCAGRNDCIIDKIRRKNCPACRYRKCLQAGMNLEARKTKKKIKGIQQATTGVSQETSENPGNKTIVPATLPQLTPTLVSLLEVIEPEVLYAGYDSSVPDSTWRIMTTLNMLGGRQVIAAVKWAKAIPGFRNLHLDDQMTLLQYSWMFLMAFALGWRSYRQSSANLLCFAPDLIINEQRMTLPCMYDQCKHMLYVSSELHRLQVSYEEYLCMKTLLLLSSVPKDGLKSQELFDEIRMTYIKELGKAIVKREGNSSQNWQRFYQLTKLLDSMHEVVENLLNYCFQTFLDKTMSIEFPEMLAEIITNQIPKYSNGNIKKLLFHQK
Method: For native gene expression, C2C12 myotubes were treated compounds for 24 h. For MMTV-Luc assay, steroid-deprived 293T cells were co-transfected with a GR expression plasmid and an MMTV-driven luciferase reporter plasmid. The next day, cells were treated with compounds for 24 hrs. Each point represents the average of triplicate biological measurements for a separate compound. B) AR Luc assay development. Steroid-deprived 293T cells were transfected with AR expression plasmid and an ARR3-tk-driven luciferase reporter. The next day cells were treated with increasing doses of the indicated compounds. Data shown are mean+SD of triplicate measurements. C) AR-Luc assay identified 5 GCs with some AR activity.
A) The effects of all tested compounds on IL-1β-induced IL-6 production (x-axes) versus GR interaction with the indicated peptides. B-C) The effects of all tested compounds on the indicated GC-regulated phenotypes (x-axes) versus GR interaction with the CHD9_1023 and CENPR_1 peptides (y-axes). D-F) COC plots. Each point represents the Pearson correlation coefficient, r, between a distinct gene expression or GR-peptide interaction assay with assays indicated on the x and y axes. G) The effects of all tested compounds on IL-1β-induced IL-6 production (y-axes) versus insulin-induced protein synthesis. […] IL-β-induced IL-6 production by A549 cells treated with the indicated compounds was compared by AlphaLISA. […] Mice in panel K were subjected to a lactate-tolerance test (LTT).
For inclusion in the statistical analyses, assays were required to show high reproducibility, with a Pearson correlation >0.8 between different experiments (FIG. 2, H; FIG. 9, A). […] We also analyzed the effects of the compounds on expression of Fkbp5, Pdk4, and Klf15 mRNAs in C2C12 myotubes, and MMTV-luciferase and androgen receptor (AR) driven-luciferase activity in 293T cells. Fkbp5 and Pdk4 are among the most highly expressed GR target genes, while Klf15 is a known GR target gene that inhibits protein synthesis and stimulates expression of genes that facilitate protein degradation (Shimizu et al., Cell Metabol. 13, 170-182, 2011). We also analyzed the effects of compounds on nuclear translocation of GR using a quantitative HTS approach (Htun et al., Proc. Natl. Acad. Sci. USA 93, 4845-4850, 1996). To visualize the variance of the compounds, we expressed the data as Z score for each assay, in units of standard deviation (FIG. 9, A). […] We used an AR-luciferase assay to test for androgenic activity (FIG. 9, B). From this we identified a handful compounds with AR activity >5% (FIG. 9, C).

[2] = system: mitochondrial activity, pAKT, protein synthesis, and bone; experiment: Compound profiling platform, overall profile (FIG. 15); format: cell-based; settings: 10 uM
Method: N=4-6 from two different experiments. […] D) Mitochondrial activity was measured in myoblasts using high content imaging with mitotracker dye after 24 treatment. New amino acid incorporation was measured with LICOR in cell western for puromycin (SunSet assay). […] N=3, mean+SEM. […] N=4, mean+SEM, 2-way ANOVA.
To avoid such effects on myogenesis, we switched myoblasts to differentiation media, and then on day 4, added 10 μM cytarabine, a chemotherapy agent that kills dividing cells, and then adding GCs on day 6 or 7 and completing assays in day 8 (FIG. 8).
Physiologically, the effects of GCs on protein balance and Glut4 translocation vary in vivo depending upon the stressor. For example, GCs mediate atrophy in response to fasting but not exercise. […] To assess protein degradation, we measured chymotrypsin-like proteasomal activity (FIG. 2, A). The activating phosphorylation of AKT at Thr308 (pAKT) was measured using a LI-COR In-Cell Western assay (FIG. 2, B and C). The rate-limiting step in insulin-mediated glucose uptake is the translocation of the glucose transporter, Glut4, to the surface membrane, which we also measured by In-Cell Western without permeabilizing the myotubes (FIG. 2, D). Surface Sensing of Translation (SUnSET) (Schmidt et al., Nat Methods 6, 275-277, 2009) assay was used to measure protein synthesis by In-Cell Western, following treatment of myotubes with a low dose of puromycin, which incorporates into translating proteins, but at a low enough level to provide a readout for global protein synthesis (FIG. 2, E). Lastly, we developed a high-content imaging assay in myoblasts stained with a MitoTracker dye, so that individual mitochondrial networks could be visualized with adequate resolution to quantitate area, segmentation, branching, and fluorescence intensity which is a measure of mitochondrial membrane potential (ψm).
Additional studies were performed to assess activities of the various compounds identified from the previous profiling.

| Compound | EC50 ([1]; assay not given, read-out: EC50) [nM] | overall profile in compound profiling (anabolic effects, agonism) [2] | modulator profile (agonist/antagonist) [1] | IC50 ([1]; read-out: IC50 for displacing 10 nM Dex, antagonist mode, 10 nM Dex) [nM] | IC50 ([1]; read-out: IC50 in the reporter assay) [nM] | EC50 ([1]; read-out: EC50 in a luciferase reporter assay) [nM] | IC50 ([1]; read-out: IC50 for GR-driven luciferase activity) [nM] |
| --- | --- | --- | --- | --- | --- | --- | --- |
| CC#CC1(O)CCC2C3CCc4cc(C(=O)Nc5cnccc5C)ccc4C3C(O)CC21C (centres unmarked) [SR15421] | 240 | anabolic effects | – | – | – | – | – |
| CC#CC1(O)CCC2C3CCc4cc(C(=O)Nc5cccnc5C)ccc4C3C(OCc3ccccc3Cl)CC21C (centres unmarked) [SR16024] | – | more antagonistic SGRMs; also recorded: anabolic effects | full antagonist | 1 | 1.5 | – | – |
| CC#CC1(O)CCC2C3CCc4cc(C(=O)Nc5cccnc5C)ccc4C3C(OCc3ccc(Cl)cc3)CC21C (centres unmarked) [SR16025] | – | more antagonistic SGRMs; also recorded: anabolic effects | – | – | – | – | – |
| C=CCOC1CC2(C)C(CCC2(O)C#CC)C2CCc3cc(C(=O)Nc4cccnc4C)ccc3C12 (centres unmarked) [SR11466] | – | anti-inflammatory but muscle sparing; also recorded: anabolic effects | partial agonist | – | – | 0.1 | 0.24 |
